“And” between values parts separate entries of the source, which are not always exact repeats. Identical values can stand only once. Like-named read-outs stand apart in the source and are kept apart here.
Experiments:
HEK293T cells = assay: Drug sensitivity assay (CellTiter-Glo viability) with or without MLN4924 pretreatment; assay type: cell-based, human
In short: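 Cas9-expressing HEK293T cells receive either vehicle or 100 nM MLN4924, then compounds 2 h afterwards. After three days, luminescence-based viability is measured and calculated relative to DMSO.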

CDK9–cyclin T = target: T1, CDK9–cyclin T (Homo sapiens, UniProt P50750); assay: Lanthascreen kinase binding assay, CDK9
T1 construct: purchased Thermo Fisher
T1 sequence (P50750 whole entry): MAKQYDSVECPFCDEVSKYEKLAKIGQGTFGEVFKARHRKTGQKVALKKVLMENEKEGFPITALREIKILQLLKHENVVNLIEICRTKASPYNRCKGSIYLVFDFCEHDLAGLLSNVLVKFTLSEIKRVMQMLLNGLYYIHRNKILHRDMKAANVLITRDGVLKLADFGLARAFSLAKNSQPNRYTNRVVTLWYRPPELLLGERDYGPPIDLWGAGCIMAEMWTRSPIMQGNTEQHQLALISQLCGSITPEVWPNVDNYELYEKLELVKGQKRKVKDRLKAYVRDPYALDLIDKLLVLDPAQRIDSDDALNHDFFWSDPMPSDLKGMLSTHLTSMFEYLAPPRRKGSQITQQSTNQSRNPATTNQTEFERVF
T1 sequence (O60563 whole entry partner): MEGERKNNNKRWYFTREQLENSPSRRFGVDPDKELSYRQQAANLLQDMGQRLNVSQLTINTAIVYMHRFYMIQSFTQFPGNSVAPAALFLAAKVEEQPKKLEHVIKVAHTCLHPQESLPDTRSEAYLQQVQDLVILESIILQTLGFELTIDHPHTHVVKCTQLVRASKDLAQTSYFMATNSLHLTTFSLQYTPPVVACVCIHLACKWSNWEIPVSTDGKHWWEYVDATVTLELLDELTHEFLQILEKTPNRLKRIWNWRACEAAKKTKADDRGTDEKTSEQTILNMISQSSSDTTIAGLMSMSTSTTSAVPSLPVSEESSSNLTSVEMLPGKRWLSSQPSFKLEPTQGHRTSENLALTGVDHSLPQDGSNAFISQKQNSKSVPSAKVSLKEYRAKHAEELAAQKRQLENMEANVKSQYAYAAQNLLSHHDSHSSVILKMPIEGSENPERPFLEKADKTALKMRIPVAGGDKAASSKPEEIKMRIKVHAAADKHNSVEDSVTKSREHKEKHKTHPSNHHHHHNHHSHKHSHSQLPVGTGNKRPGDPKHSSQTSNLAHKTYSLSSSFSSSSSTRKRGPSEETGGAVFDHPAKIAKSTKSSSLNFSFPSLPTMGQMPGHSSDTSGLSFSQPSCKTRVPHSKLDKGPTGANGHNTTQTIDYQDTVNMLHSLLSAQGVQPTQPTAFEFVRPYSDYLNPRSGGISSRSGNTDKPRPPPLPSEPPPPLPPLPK
Description: (§1) Lanthascreen experiments were performed using commercially available reagents (Thermo Fisher) and according to the manufacturer’s instructions.

CDK2–cyclin A = target: T2, CDK2–cyclin A (Homo sapiens, UniProt P24941); assay: Lanthascreen kinase binding assay, CDK2; conditions: for Lanthascreen signal, sheet CDK2: raw replicates
T2 construct: purchased Thermo Fisher
Description: as §1

cyclin K = assay: Label-free quantitative mass spectrometry in MDA-MB-231 cells, cyclin K; assay type: cell-based, human
In short: (§2)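 MDA-MB-231 cells treated 5 h with 1 µM cyclin K degrader or DMSO. Lysates digested with LysC and trypsin, then analysed by label-free diaPASEF LC-MS on a TimsTOF Pro2 with directDIA search and MS1 precursor quantification. Protein abundances scaled and analysed with limma.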

CDK13 = target: T3, CDK13 (Homo sapiens, UniProt Q14004+Q16531); assay: Label-free quantitative mass spectrometry in MDA-MB-231 cells, CDK13; assay type: cell-based
T3 construct: endogenous in cells; host or cells: MDA-MB-231
T3 sequence (Q14004 whole entry): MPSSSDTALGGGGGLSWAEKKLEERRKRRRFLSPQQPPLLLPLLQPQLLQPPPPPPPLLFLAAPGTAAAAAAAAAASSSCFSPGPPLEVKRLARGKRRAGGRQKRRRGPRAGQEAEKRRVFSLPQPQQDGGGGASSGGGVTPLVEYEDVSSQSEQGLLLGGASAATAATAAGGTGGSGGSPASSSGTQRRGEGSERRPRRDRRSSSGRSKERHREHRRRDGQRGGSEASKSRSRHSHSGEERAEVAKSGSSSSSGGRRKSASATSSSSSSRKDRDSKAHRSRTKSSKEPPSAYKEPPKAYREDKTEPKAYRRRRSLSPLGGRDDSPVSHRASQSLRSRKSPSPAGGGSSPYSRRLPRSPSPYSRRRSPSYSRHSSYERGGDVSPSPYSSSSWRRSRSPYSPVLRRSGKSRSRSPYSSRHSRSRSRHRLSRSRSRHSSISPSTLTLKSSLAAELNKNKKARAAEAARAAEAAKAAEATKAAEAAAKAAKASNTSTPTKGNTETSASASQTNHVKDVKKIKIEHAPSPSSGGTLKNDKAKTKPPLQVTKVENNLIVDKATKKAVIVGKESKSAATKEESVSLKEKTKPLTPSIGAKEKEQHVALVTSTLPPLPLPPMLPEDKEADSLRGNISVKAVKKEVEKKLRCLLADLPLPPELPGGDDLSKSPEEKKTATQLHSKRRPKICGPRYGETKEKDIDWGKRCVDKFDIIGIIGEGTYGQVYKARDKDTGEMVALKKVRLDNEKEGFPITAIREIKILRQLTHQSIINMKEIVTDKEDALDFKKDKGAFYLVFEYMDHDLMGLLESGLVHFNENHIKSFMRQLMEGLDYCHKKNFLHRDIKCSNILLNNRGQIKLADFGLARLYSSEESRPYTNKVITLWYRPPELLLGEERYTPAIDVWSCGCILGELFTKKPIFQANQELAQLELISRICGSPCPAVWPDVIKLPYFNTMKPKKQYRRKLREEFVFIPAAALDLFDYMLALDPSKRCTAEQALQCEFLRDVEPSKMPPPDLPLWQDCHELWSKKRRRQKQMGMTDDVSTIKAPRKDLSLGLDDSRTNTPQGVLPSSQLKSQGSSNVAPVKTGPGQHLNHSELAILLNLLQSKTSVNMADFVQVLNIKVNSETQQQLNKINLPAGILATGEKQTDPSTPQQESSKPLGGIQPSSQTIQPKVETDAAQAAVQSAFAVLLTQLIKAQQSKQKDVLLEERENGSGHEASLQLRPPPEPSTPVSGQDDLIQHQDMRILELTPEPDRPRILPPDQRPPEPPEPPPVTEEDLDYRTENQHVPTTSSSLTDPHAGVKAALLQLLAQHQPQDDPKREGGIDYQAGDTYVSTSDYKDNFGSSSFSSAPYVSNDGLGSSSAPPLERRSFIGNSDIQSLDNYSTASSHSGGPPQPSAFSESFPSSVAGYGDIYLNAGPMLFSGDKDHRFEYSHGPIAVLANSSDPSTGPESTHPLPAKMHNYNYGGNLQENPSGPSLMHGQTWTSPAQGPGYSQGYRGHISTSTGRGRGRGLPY
T3 sequence (O75909 whole entry partner): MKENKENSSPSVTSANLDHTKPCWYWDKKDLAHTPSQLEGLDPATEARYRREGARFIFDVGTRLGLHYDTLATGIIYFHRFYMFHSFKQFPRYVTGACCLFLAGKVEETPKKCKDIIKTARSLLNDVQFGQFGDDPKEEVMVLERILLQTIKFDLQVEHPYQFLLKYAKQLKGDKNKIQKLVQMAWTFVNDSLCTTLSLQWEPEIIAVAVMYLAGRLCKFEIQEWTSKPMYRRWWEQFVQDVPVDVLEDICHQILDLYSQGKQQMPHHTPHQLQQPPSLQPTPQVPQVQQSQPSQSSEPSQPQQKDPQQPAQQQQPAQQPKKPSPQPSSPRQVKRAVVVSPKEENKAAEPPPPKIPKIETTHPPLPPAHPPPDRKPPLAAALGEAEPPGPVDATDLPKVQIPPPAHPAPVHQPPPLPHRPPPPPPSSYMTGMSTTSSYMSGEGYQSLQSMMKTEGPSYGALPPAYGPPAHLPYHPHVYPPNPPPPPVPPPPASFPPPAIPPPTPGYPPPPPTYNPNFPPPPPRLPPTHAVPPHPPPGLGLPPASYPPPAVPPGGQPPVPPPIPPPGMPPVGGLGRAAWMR
T3 sequence (Q16531 2-1140 limits assumed): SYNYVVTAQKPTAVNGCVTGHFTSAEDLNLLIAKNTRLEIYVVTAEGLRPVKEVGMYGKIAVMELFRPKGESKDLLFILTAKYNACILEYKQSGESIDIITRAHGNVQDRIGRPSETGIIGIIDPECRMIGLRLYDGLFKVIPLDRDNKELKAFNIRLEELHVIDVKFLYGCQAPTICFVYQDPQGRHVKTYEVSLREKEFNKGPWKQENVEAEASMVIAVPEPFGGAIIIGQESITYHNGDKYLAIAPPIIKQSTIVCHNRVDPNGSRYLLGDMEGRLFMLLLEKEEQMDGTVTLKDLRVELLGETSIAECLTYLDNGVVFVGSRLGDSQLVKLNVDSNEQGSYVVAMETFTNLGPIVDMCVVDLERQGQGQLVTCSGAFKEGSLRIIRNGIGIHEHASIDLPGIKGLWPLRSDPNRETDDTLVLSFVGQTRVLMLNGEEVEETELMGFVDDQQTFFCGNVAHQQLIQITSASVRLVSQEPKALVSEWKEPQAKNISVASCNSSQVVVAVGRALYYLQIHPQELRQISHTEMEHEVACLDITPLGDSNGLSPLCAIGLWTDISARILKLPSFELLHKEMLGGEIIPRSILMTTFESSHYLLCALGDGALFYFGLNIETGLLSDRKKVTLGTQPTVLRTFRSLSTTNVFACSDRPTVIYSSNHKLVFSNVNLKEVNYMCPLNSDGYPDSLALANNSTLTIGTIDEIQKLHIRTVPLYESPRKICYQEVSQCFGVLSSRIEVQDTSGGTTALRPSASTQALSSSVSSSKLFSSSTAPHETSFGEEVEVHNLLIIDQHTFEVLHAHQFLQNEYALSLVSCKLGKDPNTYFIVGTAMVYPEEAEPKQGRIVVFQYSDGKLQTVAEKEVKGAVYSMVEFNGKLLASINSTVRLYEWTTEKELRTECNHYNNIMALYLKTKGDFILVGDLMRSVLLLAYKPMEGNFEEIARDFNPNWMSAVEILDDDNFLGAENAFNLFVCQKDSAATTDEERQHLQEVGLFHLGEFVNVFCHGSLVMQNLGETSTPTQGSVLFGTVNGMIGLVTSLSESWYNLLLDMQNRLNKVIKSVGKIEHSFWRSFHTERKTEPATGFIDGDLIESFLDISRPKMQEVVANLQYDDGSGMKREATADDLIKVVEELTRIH
In short: as §2

[1] = label-free quantitative MS, replicate values
[2] = normalised to DMSO = 1, replicate values

C[C@H](C(=O)Nc1nc2ccccc2[nH]1)N1Cc2ccccc2C1=O [compound 919278]
viability assay signal (normalized) (HEK293T cells; 2 nM, + MLN4924): 1.029 and 0.9647
viability assay signal (normalized) (HEK293T cells; 2 nM, without MLN4924): 1.055 and 1.0418
viability assay signal (normalized) (HEK293T cells; 4.69 nM, + MLN4924): 1.105 and 1.018
viability assay signal (normalized) (HEK293T cells; 4.69 nM, without MLN4924): 1.004 and 1.008
viability assay signal (normalized) (HEK293T cells; 11 nM, + MLN4924): 1.0606 and 0.9151
viability assay signal (normalized) (HEK293T cells; 11 nM, without MLN4924): 1.048 and 1.059
viability assay signal (normalized) (HEK293T cells; 25.7 nM, + MLN4924): 1.025 and 1.119
viability assay signal (normalized) (HEK293T cells; 25.7 nM, without MLN4924): 0.893 and 1.0689
viability assay signal (normalized) (HEK293T cells; 141 nM, + MLN4924): 1.103 and 1.1762
viability assay signal (normalized) (HEK293T cells; 141 nM, without MLN4924): 1.0013 and 1.019
viability assay signal (normalized) (HEK293T cells; 331 nM, + MLN4924): 1.1 and 1.102
viability assay signal (normalized) (HEK293T cells; 331 nM, without MLN4924): 0.8356 and 0.898
viability assay signal (normalized) (HEK293T cells; 4270 nM, + MLN4924): 0.7328 and 0.6837
viability assay signal (normalized) (HEK293T cells; 4270 nM, without MLN4924): 0.374 and 0.3286
viability assay signal (normalized) (HEK293T cells; 10000 nM, + MLN4924): 0.484 and 0.4101
viability assay signal (normalized) (HEK293T cells; 10000 nM, without MLN4924): 0.3001 and 0.3205
EC50 (HEK293T cells; Homo sapiens, HEK-293T, Supplementary Table 2, HEK293T viability, 72 h, compound alone, read-out: Cellular assays EC50): 559 nM
Toxicity rescue (HEK293T cells; Supplementary Table 2, MLN4924-mediated cytotoxicity rescue, 10 µM used where n.d.): 749%
IC50 (CDK9–cyclin T; Lanthascreen, average, Extended Data Fig. 8, read-out: CDK9 IC50): 120 nM
Lanthascreen TR-FRET signal (raw ratio), sheet CDK9 (CDK9–cyclin T; compound 0.038147 nM, fourth titration set (r37), triplicates): 0.0408 and 0.04808 and 0.04479
Lanthascreen TR-FRET signal (raw ratio), sheet CDK9 (CDK9–cyclin T; compound 0.038147 nM, second titration set (r13), duplicates): 0.01436 and 0.01414
Lanthascreen TR-FRET signal (raw ratio), sheet CDK9 (CDK9–cyclin T; compound 0.152588 nM, fourth titration set (r37), triplicates): 0.0398 and 0.0481 and 0.0499
Lanthascreen TR-FRET signal (raw ratio), sheet CDK9 (CDK9–cyclin T; compound 0.152588 nM, second titration set (r13), duplicates): 0.01385 and 0.01395
Lanthascreen TR-FRET signal (raw ratio), sheet CDK9 (CDK9–cyclin T; compound 0.610352 nM, fourth titration set (r37), triplicates): 0.03905 and 0.04639 and 0.04821
Lanthascreen TR-FRET signal (raw ratio), sheet CDK9 (CDK9–cyclin T; compound 0.610352 nM, second titration set (r13), duplicates): 0.01357 and 0.01395
Lanthascreen TR-FRET signal (raw ratio), sheet CDK9 (CDK9–cyclin T; compound 9.76563 nM, fourth titration set (r37), triplicates): 0.03561 and 0.04225 and 0.04097
Lanthascreen TR-FRET signal (raw ratio), sheet CDK9 (CDK9–cyclin T; compound 9.76563 nM, second titration set (r13), duplicates): 0.01332 and 0.01366
Lanthascreen TR-FRET signal (raw ratio), sheet CDK9 (CDK9–cyclin T; compound 39.0625 nM, fourth titration set (r37), triplicates): 0.02645 and 0.03287 and 0.03192
Lanthascreen TR-FRET signal (raw ratio), sheet CDK9 (CDK9–cyclin T; compound 39.0625 nM, second titration set (r13), duplicates): 0.01225 and 0.01118
Lanthascreen TR-FRET signal (raw ratio), sheet CDK9 (CDK9–cyclin T; compound 156.25 nM, fourth titration set (r37), triplicates): 0.01751 and 0.01989 and 0.01852
Lanthascreen TR-FRET signal (raw ratio), sheet CDK9 (CDK9–cyclin T; compound 156.25 nM, second titration set (r13), duplicates): 0.008604 and 0.00887
Lanthascreen TR-FRET signal (raw ratio), sheet CDK9 (CDK9–cyclin T; compound 625 nM, fourth titration set (r37), triplicates): 0.008779 and 0.01074 and 0.01058
Lanthascreen TR-FRET signal (raw ratio), sheet CDK9 (CDK9–cyclin T; compound 625 nM, second titration set (r13), duplicates): 0.005642 and 0.005316
Lanthascreen TR-FRET signal (raw ratio), sheet CDK9 (CDK9–cyclin T; compound 2500 nM, fourth titration set (r37), triplicates): 0.006189 and 0.006358 and 0.00654
Lanthascreen TR-FRET signal (raw ratio), sheet CDK9 (CDK9–cyclin T; compound 2500 nM, second titration set (r13), duplicates): 0.00388 and 0.003855
Lanthascreen TR-FRET signal (raw ratio), sheet CDK9 (CDK9–cyclin T; compound 10000 nM, fourth titration set (r37), triplicates): 0.00467 and 0.004911 and 0.00523
Lanthascreen TR-FRET signal (raw ratio), sheet CDK9 (CDK9–cyclin T; compound 10000 nM, second titration set (r13), duplicates): 0.003154 and 0.003151
Lanthascreen signal, sheet CDK2 (CDK2–cyclin A; Compound 0.038147 nM, experiment r13-r23): 0.01269 and 0.01352
Lanthascreen signal, sheet CDK2 (CDK2–cyclin A; Compound 0.038147 nM, experiment r48-r58): 0.008606 and 0.009047
Lanthascreen signal, sheet CDK2 (CDK2–cyclin A; Compound 0.038147 nM, experiment r60-r70): 0.02095 and 0.02064 and 0.01986
Lanthascreen signal, sheet CDK2 (CDK2–cyclin A; Compound 0.152588 nM, experiment r13-r23): 0.01305 and 0.01362
Lanthascreen signal, sheet CDK2 (CDK2–cyclin A; Compound 0.152588 nM, experiment r48-r58): 0.00965 and 0.01047
Lanthascreen signal, sheet CDK2 (CDK2–cyclin A; Compound 0.152588 nM, experiment r60-r70): 0.02036 and 0.02142 and 0.02063
Lanthascreen signal, sheet CDK2 (CDK2–cyclin A; Compound 0.610352 nM, experiment r13-r23): 0.01272 and 0.01276
Lanthascreen signal, sheet CDK2 (CDK2–cyclin A; Compound 0.610352 nM, experiment r48-r58): 0.009379 and 0.009611
Lanthascreen signal, sheet CDK2 (CDK2–cyclin A; Compound 0.610352 nM, experiment r60-r70): 0.02437 and 0.01852 and 0.0217
Lanthascreen signal, sheet CDK2 (CDK2–cyclin A; Compound 9.76563 nM, experiment r13-r23): 0.0128 and 0.01342
Lanthascreen signal, sheet CDK2 (CDK2–cyclin A; Compound 9.76563 nM, experiment r48-r58): 0.0095 and 0.01028
Lanthascreen signal, sheet CDK2 (CDK2–cyclin A; Compound 9.76563 nM, experiment r60-r70): 0.02195 and 0.02182 and 0.02183
Lanthascreen signal, sheet CDK2 (CDK2–cyclin A; Compound 39.0625 nM, experiment r13-r23): 0.01226 and 0.01223
Lanthascreen signal, sheet CDK2 (CDK2–cyclin A; Compound 39.0625 nM, experiment r48-r58): 0.009849 and 0.009843
Lanthascreen signal, sheet CDK2 (CDK2–cyclin A; Compound 39.0625 nM, experiment r60-r70): 0.02238 and 0.0202 and 0.02147
Lanthascreen signal, sheet CDK2 (CDK2–cyclin A; Compound 156.25 nM, experiment r13-r23): 0.01136 and 0.01335
Lanthascreen signal, sheet CDK2 (CDK2–cyclin A; Compound 156.25 nM, experiment r48-r58): 0.009932 and 0.01021
Lanthascreen signal, sheet CDK2 (CDK2–cyclin A; Compound 156.25 nM, experiment r60-r70): 0.02199 and 0.02222 and 0.02099
Lanthascreen signal, sheet CDK2 (CDK2–cyclin A; Compound 625 nM, experiment r13-r23): 0.01232 and 0.01317
Lanthascreen signal, sheet CDK2 (CDK2–cyclin A; Compound 625 nM, experiment r48-r58): 0.009318 and 0.009813
Lanthascreen signal, sheet CDK2 (CDK2–cyclin A; Compound 625 nM, experiment r60-r70): 0.02407 and 0.01928 and 0.02248
Lanthascreen signal, sheet CDK2 (CDK2–cyclin A; Compound 2500 nM, experiment r13-r23): 0.0114 and 0.013
Lanthascreen signal, sheet CDK2 (CDK2–cyclin A; Compound 2500 nM, experiment r48-r58): 0.009215 and 0.009737
Lanthascreen signal, sheet CDK2 (CDK2–cyclin A; Compound 2500 nM, experiment r60-r70): 0.02278 and 0.02094 and 0.0202
Lanthascreen signal, sheet CDK2 (CDK2–cyclin A; Compound 10000 nM, experiment r13-r23): 0.01075 and 0.01117
Lanthascreen signal, sheet CDK2 (CDK2–cyclin A; Compound 10000 nM, experiment r48-r58): 0.008396 and 0.009419
Lanthascreen signal, sheet CDK2 (CDK2–cyclin A; Compound 10000 nM, experiment r60-r70): 0.02054 and 0.0167 and 0.01885
IC50 (CDK2–cyclin A; Lanthascreen, average, Extended Data Fig. 8, read-out: CDK2 IC50): > 10000 nM
IC50 (CDK2–cyclin A; Supplementary Table 2, read-out: Lanthascreen IC50 [nM] CDK2): > 10000 nM
cyclin K abundance (label-free MS) (cyclin K; individual replicates, sheet EDF7): 525.324 and 551.956
cyclin K abundance (label-free MS) (cyclin K; [1]): 525.324 and 551.956
CCNK peptide count (DMSO-normalised) (cyclin K; [2]): 0.287 and 0.307
average CCNK peptide count (cyclin K; sheet EDF7): 538.64
CDK13 peptide count (CDK13; [1]): 457.834 and 405.628
CDK13 peptide count (DMSO-normalised) (CDK13; [2]): 0.6811 and 0.6233

From publication PMC10746543, “Design principles for cyclin K molecular glue degraders” (Nature Chemical Biology, 2023)
